From BindingDB's records for patent US10188615 (ACUCELA INC., 2019)

Biological target: T1, Retinoid isomerohydrolase (Human, UniProt Q16518)
T1 sequence (Q16518 whole entry): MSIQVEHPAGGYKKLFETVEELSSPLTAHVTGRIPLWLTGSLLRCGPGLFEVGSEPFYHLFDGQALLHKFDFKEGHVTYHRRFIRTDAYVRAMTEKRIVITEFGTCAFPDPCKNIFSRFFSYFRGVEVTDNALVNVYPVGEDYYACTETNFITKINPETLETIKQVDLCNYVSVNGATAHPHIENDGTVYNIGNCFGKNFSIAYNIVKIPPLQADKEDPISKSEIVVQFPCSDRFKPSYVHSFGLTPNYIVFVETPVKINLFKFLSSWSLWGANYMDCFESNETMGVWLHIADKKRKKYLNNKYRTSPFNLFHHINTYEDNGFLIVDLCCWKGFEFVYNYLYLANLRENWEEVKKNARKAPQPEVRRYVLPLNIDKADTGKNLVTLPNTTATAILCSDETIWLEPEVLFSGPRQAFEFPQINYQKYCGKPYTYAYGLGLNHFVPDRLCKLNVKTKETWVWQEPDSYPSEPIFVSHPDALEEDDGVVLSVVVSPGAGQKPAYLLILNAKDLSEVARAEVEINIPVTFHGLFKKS
Assay: In Vitro Isomerase Inhibition Assay

IC50	SMILES
in the range around 0.55 µM	C[C@@H](CN)Oc1cccc(OCC2CCCCC2)c1 [US10188615, Example 65]
in the range around 0.055 µM	CCC(CC)COc1cccc(C[C@H](O)CN)c1 [US10188615, Example 66]
in the range around 0.055 µM	CCCC(CCC)COc1cccc(C[C@H](O)CN)c1 [US10188615, Example 67]
in the range around 0.055 µM	CCCC(CCC)COc1cccc(C[C@@H](O)CN)c1 [US10188615, Example 68]
in the range around 0.055 µM	CCC(CC)COc1cccc(C[C@@H](O)CN)c1 [US10188615, Example 69]
in the range around 0.55 µM	NCCCc1cccc(OCCc2ccccc2)c1 [US10188615, Example 70]
in the range around 0.055 µM	NCCC(O)c1cccc(OCC2CC2)c1 (stereo not drawn) [US10188615, Example 71]
in the range around 0.055 µM	C[C@@H](CN)[C@H](O)c1cccc(OCC2CCCCC2)c1 [US10188615, Example 73]
in the range around 0.055 µM	C[C@@H](CN)[C@@H](O)c1cccc(OCC2CCCCC2)c1 [US10188615, Example 75]
in the range around 5.5 µM	C[C@H](CN)[C@H](O)c1cccc(OCC2CCCCC2)c1 [US10188615, Example 76]
in the range around 5.5 µM	COCCOCCOCC(=O)NCCC(O)c1cccc(OCC2CCCCC2)c1 (stereo not drawn) [US10188615, Example 77]
in the range around 0.55 µM	C=C(CCN)c1cccc(OCC2CCCCC2)c1 [US10188615, Example 78]
in the range around 5.5 µM	NCCC(O)(CO)c1cccc(OCC2CCCCC2)c1 (stereo not drawn) [US10188615, Example 79]
in the range around 0.55 µM	NCCC(CO)c1cccc(OCC2CCCCC2)c1 (stereo not drawn) [US10188615, Example 80]
in the range around 0.055 µM	CC(CCN)c1cccc(OCC2CCCCC2)c1 (stereo not drawn) [US10188615, Example 81]
in the range around 0.55 µM	COCCCCOc1cccc(OCCN)c1 [US10188615, Example 82]
in the range around 0.055 µM	NCCC(O)c1cccc(OCC2CCCCO2)c1 (stereo not drawn) [US10188615, Example 83]
in the range around 0.55 µM	NCCOc1cccc(OCc2c(Cl)cccc2Cl)c1 [US10188615, Example 84]
in the range around 0.55 µM	COCCCOc1cccc(OCCN)c1 [US10188615, Example 85]

IC50	SMILES
in the range around 0.55 µM	COCCOc1cccc(C(O)CCN)c1 (stereo not drawn) [US10188615, Example 86]
in the range around 0.55 µM	NCCOc1cccc(OCCCc2ccccc2)c1 [US10188615, Example 89]
in the range around 0.055 µM	CCCCCOc1cccc(OCCN)c1 [US10188615, Example 90]
in the range around 0.55 µM	NCCCc1cccc(OCc2c(Cl)cccc2Cl)c1 [US10188615, Example 91]
in the range around 0.055 µM	COc1ccccc1COc1cccc(C(O)CCN)c1 (stereo not drawn) [US10188615, Example 92]
in the range around 0.055 µM	NCCOc1cccc(OCC2CCCCCCC2)c1 [US10188615, Example 93]
in the range around 0.55 µM	NCCOc1cccc(OCCCOCc2ccccc2)c1 [US10188615, Example 94]
in the range around 5.5 µM	NCCOc1cccc(OCCCO)c1 [US10188615, Example 95]
in the range around 0.55 µM	NCCCc1cccc(OCCCc2ccccc2)c1 [US10188615, Example 96]
in the range around 5.5 µM	NCCCc1cccc(OCCCO)c1 [US10188615, Example 98]
in the range around 0.55 µM	NCCCc1cccc(OCC2CCCCCCC2)c1 [US10188615, Example 99]
in the range around 5.5 µM	NCCOc1cccc(OCCCCOCc2ccccc2)c1 [US10188615, Example 100]
in the range around 0.55 µM	COc1ccccc1COc1cccc(OCCN)c1 [US10188615, Example 101]
in the range around 0.55 µM	NCCCc1cccc(OCCOCc2ccccc2)c1 [US10188615, Example 102]
in the range around 0.055 µM	NCCCc1cccc(OCC2CCCC2)c1 [US10188615, Example 103]
in the range around 0.055 µM	NCCOc1cccc(OCC2CCCC2)c1 [US10188615, Example 104]
in the range around 0.055 µM	NCCC(O)c1cccc(OCc2c(Cl)cccc2Cl)c1 (stereo not drawn) [US10188615, Example 105]
in the range around 0.055 µM	NCCC(O)c1cccc(OCC2CCCCCCC2)c1 (stereo not drawn) [US10188615, Example 106]
in the range around 0.055 µM	CC(C)CCOc1cccc(C(O)CCN)c1 (stereo not drawn) [US10188615, Example 107]

IC50	SMILES
in the range around 0.055 µM	COCCCOc1cccc(C(O)CCN)c1 (stereo not drawn) [US10188615, Example 108]
in the range around 5.5 µM	NCCC(O)c1cccc(OCCO)c1 (stereo not drawn) [US10188615, Example 109]
in the range around 5.5 µM	COCCOc1cccc(OCCN)c1 [US10188615, Example 113]
in the range around 0.055 µM	NCCC(O)c1cccc(OCCCCOCc2ccccc2)c1 (stereo not drawn) [US10188615, Example 114]
in the range around 0.055 µM	NCCC(O)c1cccc(OCCCCCOCc2ccccc2)c1 (stereo not drawn) [US10188615, Example 115]
in the range around 0.55 µM	NCCCc1cccc(OCc2nccs2)c1 [US10188615, Example 122]
in the range around 0.055 µM	NCCSc1cccc(OCC2CCCCC2)c1 [US10188615, Example 123]
in the range around 0.55 µM	NCC[S+]([O-])c1cccc(OCC2CCCCC2)c1 (stereo not drawn) [US10188615, Example 124]
in the range around 0.55 µM	NCCS(=O)(=O)c1cccc(OCC2CCCCC2)c1 [US10188615, Example 125]
in the range around 0.55 µM	NCC/C(=N\N)c1cccc(OCC2CCCCC2)c1 [US10188615, Example 126]
in the range around 5.5 µM	CN(CCN)c1cccc(OCC2CCCCC2)c1 [US10188615, Example 128]
in the range around 0.55 µM	NCCNc1cccc(OCC2CCCCC2)c1 [US10188615, Example 129]
in the range around 0.055 µM	N=C(N)CC(O)c1cccc(OCC2CCCCC2)c1 (stereo not drawn) [US10188615, Example 130]
in the range around 0.055 µM	NCCC(O)c1cccc(OCCCOCc2ccccc2)c1 (stereo not drawn) [US10188615, Example 131]
in the range around 5.5 µM	CNC(=O)CCCOc1cccc(OCCN)c1 [US10188615, Example 133]
in the range around 5.5 µM	NCCOc1cccc(OCCCCCOCc2ccccc2)c1 [US10188615, Example 134]
in the range around 0.55 µM	NCCCc1cccc(OCC2(O)CCCCCCC2)c1 [US10188615, Example 135]
in the range around 5.5 µM	NCCCc1cccc(OCCCCCOCc2ccccc2)c1 [US10188615, Example 136]
in the range around 5.5 µM	Cc1cccc(C)c1COc1cccc(CCCN)c1 [US10188615, Example 137]

SMILES	IC50
NCC(O)c1cccc(OCC2CCCCC2)c1 (stereo not drawn) [US10188615, Example 127]	in the range around 0.55 µM
